The target in the experiment is T1, Recombinant Human Poly(ADP-Ribose) Polymerase (PARP), PARP-1 (Homo sapiens, UniProt P09874).
T1 construct: purchased Trevigen; host or cells: E. coli
As to the kind of experiment: PARP Enzyme Inhibition Assay (PARP1, SPA/FlashPlate). As to conditions: 1 nM PARP enzyme, [3H]-NAD+, 200 nM biotinylated histone H1, 200 nM slDNA. The class given is biochemical. On the procedure:
Nicotinamide[2,5′,8-3H]adenine dinucleotide and strepavidin SPA beads were purchased from Amersham Biosiences. Recombinant Human Poly(ADP-Ribose) Polymerase (PARP), purified from E. coli and 6-Biotin-17-NAD^+, were purchase from Trevigen. NAD^+, histone, aminobenzamide, 3-amino benzamide and Calf Thymus DNA (dcDNA) were purchased from Sigma. Stem loop oligonucleotide containing MCAT sequence was obtained from Qiagen. The oligos were dissoloved to 1 mM in annealing buffer containing 10 mM Tris HCl pH 7.5, 1 mM EDTA, and 50 mM NaCl, incubated for 5 minutes at 95° C., and annealed at 45° C. for 45 minutes. Histone H1 (95% electrophoretically pure) was purchased from Roche. Biotinylated histone H1 was prepared by treating the protein with Sulfo-NHS-LC-Biotin from Pierce. The biotinylation reaction was conducted by slowly and intermittently adding 3 equivalents of 10 mM Sulfo-NHS-LC-Biotin to 100 μM Histone H1 in phosphate-buffered saline, pH 7.5, at 4° C. with gentle vortexing over 1 minute followed by subsequent 4° C. incubation for 1 hour. Streptavidin coated (FlashPlate Plus) microplates were purchased from Perkin Elmer.
PARP1 assay was conducted in PARP assay buffer containing 50 mM Tris pH 8.0, 1 mM DTT, 4 mM MgCl2. PARP reactions contained […] [^3H]-NAD^+ (1.6 uCi/mmol), 200 nM biotinylated histone H1, 200 nM slDNA, and 1 nM PARP enzyme. Auto reactions utilizing SPA bead-based detection were carried out in 100 μL volumes in white 96 well plates. Reactions were initiated by adding 50 μl of 2×NAD^+ substrate mixture to 50 μL of 2× enzyme mixture containing PARP and DNA. These reactions were terminated by the addition of 150 μL of 1.5 mM benzamide (˜1000-fold over its IC50). 170 μL of the stopped reaction mixtures were transferred to streptavidin Flash Plates, incubated for 1 hour, and counted using a TopCount microplate scintillation counter.

Structures are written as SMILES.

T1 sequence (P09874 whole entry): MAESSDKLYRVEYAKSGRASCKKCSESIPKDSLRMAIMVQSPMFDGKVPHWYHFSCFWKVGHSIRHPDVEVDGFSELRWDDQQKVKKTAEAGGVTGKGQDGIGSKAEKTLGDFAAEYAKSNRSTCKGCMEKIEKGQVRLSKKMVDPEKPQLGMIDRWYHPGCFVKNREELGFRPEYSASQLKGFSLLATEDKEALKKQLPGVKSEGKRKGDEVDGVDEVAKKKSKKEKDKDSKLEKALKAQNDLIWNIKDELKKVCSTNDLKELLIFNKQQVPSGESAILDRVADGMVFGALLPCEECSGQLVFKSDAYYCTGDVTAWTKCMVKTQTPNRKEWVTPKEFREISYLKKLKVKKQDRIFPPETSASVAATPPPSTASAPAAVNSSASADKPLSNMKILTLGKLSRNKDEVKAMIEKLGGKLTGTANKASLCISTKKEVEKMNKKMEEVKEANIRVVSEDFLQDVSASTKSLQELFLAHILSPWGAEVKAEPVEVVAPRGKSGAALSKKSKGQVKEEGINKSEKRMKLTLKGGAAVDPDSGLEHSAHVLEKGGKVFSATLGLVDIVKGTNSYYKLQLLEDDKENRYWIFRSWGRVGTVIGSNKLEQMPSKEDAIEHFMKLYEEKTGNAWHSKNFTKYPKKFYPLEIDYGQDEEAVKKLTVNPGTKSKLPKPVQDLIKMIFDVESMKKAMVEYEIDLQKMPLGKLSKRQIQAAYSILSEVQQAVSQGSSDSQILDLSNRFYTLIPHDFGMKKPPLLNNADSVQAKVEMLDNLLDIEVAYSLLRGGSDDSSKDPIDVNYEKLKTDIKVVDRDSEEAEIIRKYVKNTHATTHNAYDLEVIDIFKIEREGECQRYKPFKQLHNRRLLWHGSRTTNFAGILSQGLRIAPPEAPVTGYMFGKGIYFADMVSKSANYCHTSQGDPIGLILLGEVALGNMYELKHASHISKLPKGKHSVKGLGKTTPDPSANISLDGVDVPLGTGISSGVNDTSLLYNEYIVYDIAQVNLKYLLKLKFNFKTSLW

As a reminder, the Ki is a measure of affinity in units of concentration, obtained from inhibition or displacement. As to `NC(=O)c1cccc2oc(-c3ccc(Br)cc3)nc12` [Example 1, 2-(4-bromophenyl)-1,3-benzoxazole-4-carboxamide], the inhibitory constant (Ki) is 142 nM.
Take `NC(=O)c1cccc2oc(-c3ccc(-c4ccccc4)cc3)nc12` [Example 2, 2-(1,1′-biphenyl-4-yl)-1,3-benzoxazole-4-carboxamide]: the Ki came to 9180 nM.
In the case of `NC(=O)c1cccc2oc(-c3ccc(-c4cccnc4)cc3)nc12` [Example 3, 2-(4-pyridin-3-ylphenyl)-1,3-benzoxazole-4-carboxamide] it was 312 nM.
Consider `NC(=O)c1cccc2nc(-c3ccc(Br)cc3)oc12` [Example 4, 2-(4-bromophenyl)-1,3-benzoxazole-7-carboxamide], for which the inhibition constant Ki came out at 48 nM.
Consider `NC(=O)c1cccc2nc(-c3ccc(-c4ccccc4)cc3)oc12` [Example 5, 2-(1,1′-biphenyl-4-yl)-1,3-benzoxazole-7-carboxamide], for which the Ki stood at 196 nM.
The value for `NC(=O)c1cccc2nc(-c3ccc(-c4ccc5c(c4)OCO5)cc3)oc12` [Example 6, 2-[4-(1,3-benzodioxol-5-yl)phenyl]-1,3-benzoxazole-7-carboxamide] was 841 nM; that for `NC(=O)c1cccc2nc(-c3ccc(-c4cc[nH]n4)cc3)oc12` [Example 7, 2-[4-(1H-pyrazol-3-yl)phenyl]-1,3-benzoxazole-7-carboxamide] was 109 nM.
On to `NC(=O)c1cccc2nc(-c3ccc(-c4cccc(N)c4)cc3)oc12` [Example 8, 2-(3′-amino-1,1′-biphenyl-4-yl)-1,3-benzoxazole-7-carboxamide], for which the inhibition constant (Ki) turned out to be 3250 nM.
For `NC(=O)c1cccc2nc(-c3ccc(-c4cccnc4)cc3)oc12` [Example 9, 2-(4-pyridin-3-ylphenyl)-1,3-benzoxazole-7-carboxamide], the Ki turned out to be 63 nM.
For the compound `NC(=O)c1cccc2nc(-c3ccc(-c4ccncc4)cc3)oc12` [Example 10, 2-(4-pyridin-4-ylphenyl)-1,3-benzoxazole-7-carboxamide], the Ki was 1620 nM.
As for `NC(=O)c1cccc2nc(-c3ccc(-c4ccccn4)cc3)oc12` [Example 11, 2-(4-pyridin-2-ylphenyl)-1,3-benzoxazole-7-carboxamide], the Ki was 11 nM.
In the case of `NC(=O)c1cccc2oc(-c3ccccc3)nc12` [Example 12, 2-phenyl-1,3-benzoxazole-4-carboxamide] it was 506 nM.

(Values after patent publication US20110293744A1, “BENZOXAZOLE INHIBITORS OF POLY(ADP-RIBOSE)POLYMERASE” (ABBOTT LABORATORIES, priority 2009, published 2011).)
